Results: US9656990B2, “Cathepsin cysteine protease inhibitors” (Merck Sharp & Dohme Corp., priority 2014, dated 2017)

Assays:
human cathepsin K = human cathepsin K (UniProt P43236, Y175D/V274L, species not given); assay: Cathepsin K Assay; format: biochemical; conditions: IP from dose response curve; Z-Leu-Arg-AMC substrate, pH 5.5; read-out: hrbCat K (IP (nM))
human cathepsin F = molecular target: T1, human cathepsin F (Homo sapiens, UniProt Q9UBX1); assay: Cathepsin F Assay; format: biochemical; conditions: IP from dose response curve; Z-Phe-Arg-AMC substrate, pH 5.5; read-out: hCat F (IP (nM))
T1 sequence (Q9UBX1 271-484): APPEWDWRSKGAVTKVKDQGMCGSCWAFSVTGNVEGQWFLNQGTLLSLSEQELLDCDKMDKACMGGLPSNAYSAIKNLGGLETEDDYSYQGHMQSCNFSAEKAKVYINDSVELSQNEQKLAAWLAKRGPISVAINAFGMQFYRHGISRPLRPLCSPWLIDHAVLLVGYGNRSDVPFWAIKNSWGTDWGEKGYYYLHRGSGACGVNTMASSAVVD
Method in brief: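 Human cathepsin F (10 nM) preincubated 15 min at room temperature with compounds in 50 mM MES pH 5.5, 2.5 mM EDTA, 2.5 mM DTT, 10% DMSO. Z-Phe-Arg-AMC (8 μM) added; AMC release read by fluorescence (Ex 360/Em 460 nm) over 20 min, inhibition fit to dose-response model.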

Row | SMILES | IC50 (human cathepsin K) [nM] | IC50 (human cathepsin F) [nM]
1 | C[C@@H](C#N)NC(=O)[C@@H]1CC(F)(F)CC[C@H]1c1nn(-c2ccc(F)cc2)c(CO)c1-c1ccc(N2CCS(=O)(=O)CC2)cc1 [Example 61, (1R,2R)-N-((S)-1-cyanoethyl)-2-(4-(4-(1,1-dioxidothiomorpholino)phen-yl)-1-(4-fluorophenyl)-5-(hydroxymethyl)-1H-pyrazol-3-yl)-5,5-difluorocyclohexanecarbox-amide] | 1.61 | 121
2 | N#CC1(NC(=O)[C@@H]2CC(F)(F)CC[C@H]2c2nn(-c3ccc(F)cn3)c(CF)c2-c2ccc(N3CCS(=O)(=O)CC3)cc2)CC1 [Example 62, (1R,2R)-N-(1-cyanocyclopropyl)-2-(4-(4-(1,1-dioxidothiomorpholino)phen-yl)-5-(fluoromethyl)-1-(5-fluoropyridin-2-yl)-1H-pyrazol-3-yl)-5,5-difluorocyclohexanecarbox-amide] | 1.33 | 151
3 | CC(C)[C@@H](C#N)NC(=O)[C@@H]1CC(F)(F)CC[C@H]1c1nn(-c2ccc(F)cc2)c(CO)c1-c1ccc(N2CCS(=O)(=O)CC2)cc1 [Example 63, (1R,2R)-N-((S)-1-cyano-2-methylpropyl)-2-(4-(4-(1,1-dioxidothiomorpholino)phen-yl)-1-(4-fluorophenyl)-5-(hydroxymethyl)-1H-pyrazol-3-yl)-5,5-difluorocyclohexanecarbox-amide] | 1.98 | 98
4 | C[C@@H](C#N)NC(=O)[C@@H]1CCCC[C@H]1c1nn(-c2ccc(F)cc2)c(CO)c1-c1ccc(N2CCS(=O)(=O)CC2)cc1 [Example 64, (1R,2R)-N-((S)-1-cyanoethyl)-2-(4-(4-(1,1-dioxidothiomorpholino)phen-yl)-1-(4-fluorophenyl)-5-(hydroxymethyl)-1H-pyrazol-3-yl)cyclohexanecarboxamide] | 4.61 | 565
5 | CC(C)[C@@H](C#N)NC(=O)[C@@H]1CCCC[C@H]1c1nn(-c2ccc(F)cc2)c(CO)c1-c1ccc(N2CCS(=O)(=O)CC2)cc1 [Example 65, (1R,2R)-N-((S)-1-cyano-2-methylpropyl)-2-(4-(4-(1,1-dioxidothiomorpholino)phen-yl)-1-(4-fluorophenyl)-5-(hydroxymethyl)-1H-pyrazol-3-yl)cyclohexanecarboxamide] | 11 | 868
6 | Cc1c(-c2ccc(N3CCS(=O)(=O)CC3)cc2)c([C@@H]2CCCC[C@H]2C(=O)N[C@@H](C)C#N)nn1-c1ccc(F)cn1 [Example 66, (1R,2R)-N-((S)-1-cyanoethyl)-2-(4-(4-(1,1-dioxidothiomorpholino)phen-yl)-1-(5-fluoropyridin-2-yl)-5-methyl-1H-pyrazol-3-yl)cyclohexanecarboxamide] | 3.6 | 653
7 | C[C@@H](C#N)NC(=O)[C@@H]1CC(F)(F)CC[C@H]1c1nn(-c2ccc(F)cn2)c(CO)c1-c1ccc(N2CCS(=O)(=O)CC2)cc1 [Example 67, (1R,2R)-N-((S)-1-cyanoethyl)-2-(4-(4-(1,1-dioxidothiomorpholino)phen-yl)-1-(5-fluoropyridin-2-yl)-5-(hydroxymethyl)-1H-pyrazol-3-yl)-5,5-difluorocyclohexanecarbox-amide] | 1.24 | 146
8 | N#CC1(NC(=O)[C@@H]2CC(F)(F)CC[C@H]2c2nn(-c3ccc(F)cn3)c(CO)c2-c2ccc(N3CCS(=O)(=O)CC3)cc2)CC1 [Example 68, (1R,2R)-N-(1-cyanocyclopropyl)-2-(4-(4-(1,1-dioxidothiomorpholino)phen-yl)-1-(5-fluoropyridin-2-yl)-5-(hydroxymethyl)-1H-pyrazol-3-yl)-5,5-difluorocyclohexanecarbox-amide] | 1.41 | 125
9 | CC(C)[C@@H](C#N)NC(=O)[C@@H]1CC(F)(F)CC[C@H]1c1nn(-c2ccc(F)cn2)c(CO)c1-c1ccc(N2CCS(=O)(=O)CC2)cc1 [Example 69, (1R,2R)-N-((S)-1-cyano-2-methylpropyl)-2-(4-(4-(1,1-dioxidothiomorpholino)phen-yl)-1-(5-fluoropyridin-2-yl)-5-(hydroxymethyl)-1H-pyrazol-3-yl)-5,5-difluorocyclohexanecarbox-amide] | 2.68 | 225
10 | N#CC1(NC(=O)[C@@H]2CC(F)(F)CC[C@H]2c2nn(-c3ccc(F)cn3)c(CO)c2-c2ccc(N3CCS(=O)(=O)CC3)cc2)CC1 [Example 70, (1R,2R)-N-(1-cyanocyclopropyl)-2-(4-(4-(1,1-dioxidothiomorpholino)phen-yl)-1-(5-fluoropyridin-2-yl)-5-(hydroxymethyl)-1H-pyrazol-3-yl)-5,5-difluorocyclohexanecarbox-amide] | 1.9 | 185
11 | N#CC1(NC(=O)[C@@H]2CC(F)(F)CC[C@H]2c2nn(-c3ccc(F)cn3)c(C(F)F)c2-c2ccc(N3CCS(=O)(=O)CC3)cc2)CC1 [Example 71, (1R,2R)-N-(1-cyanocyclopropyl)-2-(5-(difluoromethyl)-4-(4-(1,1-dioxidothiomorpholino)phen-yl)-1-(5-fluoropyridin-2-yl)-1H-pyrazol-3-yl)-5,5-difluorocyclohexanecarbox-amide] | 2.35 | 149
12 | C[C@@H](C#N)NC(=O)[C@@H]1CC(F)(F)CC[C@H]1c1nn2ccccc2c1-c1ccc(N2CCS(=O)(=O)CC2)cc1 [Example 72, (1R,2R)-N-((S)-1-cyanoethyl)-2-(3-(4-(1,1-dioxidothiomorpholino)phen-yl)pyrazolo[1,5-a]pyridin-2-yl)-5,5-difluorocyclohexanecarbox-amide] | 2.66 | 230
13 | CC(C)[C@@H](C#N)NC(=O)[C@@H]1CC(F)(F)CC[C@H]1c1nn2ccccc2c1-c1ccc(N2CCS(=O)(=O)CC2)cc1 [Example 73, (1R,2R)-N-((S)-1-cyano-2-methylpropyl)-2-(3-(4-(1,1-dioxidothiomorpholino)phen-yl)pyrazolo[1,5-a]pyridin-2-yl)-5,5-difluorocyclohexanecarbox-amide] | 5.19 | 269
14 | N#CCNC(=O)[C@@H]1CC(F)(F)CC[C@H]1c1nn(-c2ccc(F)cc2)cc1-c1ccc(N2CCS(=O)(=O)CC2)cc1 [Example 81, (1R,2R)-N-(cyanomethyl)-2-(4-(4-(1,1-dioxidothiomorpholino)phen-yl)-1-(4-fluorophenyl)-1H-pyrazol-3-yl)-5,5-difluorocyclohexanecarbox-amide] | 0.37 | 11
15 | N#CCNC(=O)[C@H]1CC(F)(F)CC[C@@H]1c1nn(-c2ccc(F)cc2)cc1-c1ccc(N2CCS(=O)(=O)CC2)cc1 [Example 82, (1S,2S)-N-(cyanomethyl)-2-(4-(4-(1,1-dioxidothiomorpholino)phen-yl)-1-(4-fluorophenyl)-1H-pyrazol-3-yl)-5,5-difluorocyclohexanecarbox-amide] | 144 | 1400
16 | N#CC1(NC(=O)[C@@H]2CC(F)(F)CC[C@H]2c2nn(-c3ccc(F)cc3)cc2-c2ccc(N3CCS(=O)(=O)CC3)cc2)CC1 [Example 83, (1R,2R)-N-(1-cyanocyclopropyl)-2-(4-(4-(1,1-dioxidothiomorpholino)phen-yl)-1-(4-fluorophenyl)-1H-pyrazol-3-yl)-5,5-difluorocyclohexanecarbox-amide] | 0.47 | 28
17 | N#CC1(NC(=O)[C@H]2CC(F)(F)CC[C@@H]2c2nn(-c3ccc(F)cc3)cc2-c2ccc(N3CCS(=O)(=O)CC3)cc2)CC1 [Example 84, (1S,2S)-N-(1-cyanocyclopropyl)-2-(4-(4-(1,1-dioxidothiomorpholino)phen-yl)-1-(4-fluorophenyl)-1H-pyrazol-3-yl)-5,5-difluorocyclohexanecarbox-amide] | 51.6 | 1050
18 | N#CC1(NC(=O)[C@@H]2CCCC[C@H]2c2nn(-c3ccc(F)cc3)cc2-c2ccc(N3CCS(=O)(=O)CC3)cc2)CC1 [Example 85, (1R,2R)-N-(1-cyanocyclopropyl)-2-(4-(4-(1,1-dioxidothiomorpholino)phen-yl)-1-(4-fluorophenyl)-1H-pyrazol-3-yl)cyclohexanecarboxamide] | 0.69 | 352
19 | N#CC1(NC(=O)[C@@H]2CCCC[C@H]2c2nn(-c3cccc(F)c3)cc2-c2ccc(N3CCS(=O)(=O)CC3)cc2)CC1 [Example 86, (1R,2R)-N-(1-cyanocyclopropyl)-2-(4-(4-(1,1-dioxidothiomorpholino)phen-yl)-1-(3-fluorophenyl)-1H-pyrazol-3-yl)cyclohexanecarboxamide] | 0.33 | 268
20 | COc1ccc(-n2cc(-c3ccc(N4CCS(=O)(=O)CC4)cc3)c([C@@H]3CCCC[C@H]3C(=O)NC3(C#N)CC3)n2)cc1 [Example 87, (1R,2R)-N-(1-cyanocyclopropyl)-2-(4-(4-(1,1-dioxidothiomorpholino)phen-yl)-1-(4-methoxyphenyl)-1H-pyrazol-3-yl)cyclohexanecarboxamide] | 0.99 | 740
21 | N#CC1(NC(=O)[C@@H]2CCCC[C@H]2c2nn(-c3ccc(F)cc3)cc2-c2ccc(C(=O)N3CCOCC3)cc2)CC1 [Example 88, (1R,2R)-N-(1-cyanocyclopropyl)-2-(1-(4-fluorophenyl)-4-(4-(morpholine-4-carbonyl)phenyl)-1H-pyrazol-3-yl)cyclohexanecarboxamide] | 6.9 | 1010
22 | N#CC1(NC(=O)[C@@H]2CCCC[C@H]2c2nn(-c3ccc(F)cc3)cc2-c2ccc(C(=O)N3CCNC(=O)C3)cc2)CC1 [Example 89, (1R,2R)-N-(1-cyanocyclopropyl)-2-(1-(4-fluorophenyl)-4-(4-(3-oxopiperazine-1-carbonyl)phenyl)-1H-pyrazol-3-yl)cyclohexanecarboxamide] | 9.37 | 989
